This is an account of results in ChEMBL document CHEMBL3259687, “Synthesis and identification of chiral aminomethylpiperidine carboxamides as inhibitor of collagen induced platelet activation” (Eur J Med Chem, 2014).

Series [1] in a line: Antiplatelet activity in human platelet-rich plasma assessed as inhibition of arachidonic acid-induced platelet aggregation treated for 5 mins prior to arachidonic acid challenge for 5 mins by turbidimetric method. It is filed as functional, cell-free. To be noted: for IC50: Homo sapiens, Platelet, Plasma.
The subject of series [2] is Mus musculus. Description: Antithrombotic activity in mouse assessed as protection against collagen-epinephrine-induced pulmonary thromboembolism at 170 uM/kg, po administered 60 mins prior to thrombotic challenge. The series is classed as functional.
Series [3] deals with Mus musculus. Briefly: Antithrombotic activity in mouse assessed as protection against collagen-epinephrine-induced pulmonary thromboembolism at 170 uM/kg, po administered 60 mins prior to thrombotic challenge measured for up to 5 hrs post-drug dose. It is filed as functional, organism-based.
The test system of series [4] is Mus musculus. Description: Prolongation of bleeding time in mouse at 170 uM/kg, po administered as single dose by tail excision method relative to control. It is filed as ADME, organism-based. Conditions: in vivo.
Series [5] can be described thus: Antiplatelet activity in human platelet-rich plasma assessed as inhibition of collagen-induced platelet aggregation at 30 uM treated for 5 mins prior to collagen challenge for 5 mins by turbidimetric method. It is filed as functional.
A short description of series [6]: (§1) Antiplatelet activity in human platelet-rich plasma assessed as inhibition of collagen-induced platelet aggregation treated for 5 mins prior to collagen challenge for 5 mins by turbidimetric method. It is filed as functional, cell-free. To be noted: for IC50: Homo sapiens, Platelet, Plasma.
Series [7] concerns Platelet. Description: Antiplatelet activity in human platelet-rich plasma assessed as inhibition of ADP-induced platelet aggregation treated for 5 mins prior to ADP challenge for 5 mins by turbidimetric method. The series is classed as functional, cell-free.
The test system of series [8] is Platelet. Briefly: Antiplatelet activity in human platelet-rich plasma assessed as inhibition of TRAP-induced platelet aggregation treated for 5 mins prior to TRAP challenge for 5 mins by turbidimetric method. The series is classed as functional, cell-free.
Series [9] deals with Platelet. Description: Antiplatelet activity in human platelet-rich plasma assessed as inhibition of ristocetin-induced platelet aggregation treated for 5 mins prior to ristocetin challenge for 5 mins by turbidimetric method. The series is classed as functional, cell-free.
Series [10] concerns Mus musculus. Briefly: Antithrombotic activity in mouse assessed as protection against collagen-epinephrine-induced pulmonary thromboembolism at 30 uM/kg, po administered 60 mins prior to thrombotic challenge. The series is classed as functional.
In series [11] the test system is Mus musculus. Briefly: Antithrombotic activity in mouse assessed as protection against collagen-epinephrine-induced pulmonary thromboembolism at 30 uM/kg, po administered 60 mins prior to thrombotic challenge measured for up to 18 hrs post-drug dose. The series is classed as functional, organism-based.
Series [12] deals with Mus musculus. Description: Antithrombotic activity in mouse assessed as protection against collagen-epinephrine-induced pulmonary thromboembolism at 30 uM/kg, po administered 60 mins prior to thrombotic challenge measured at >18 hrs post-drug dose. The series is classed as functional, organism-based.
The test system of series [13] is Mus musculus. Briefly: Prolongation of bleeding time in mouse at 30 uM/kg, po administered as single dose by tail excision method. It is filed as ADME, organism-based. To be noted: in vivo.
Series [14] concerns Mus musculus. Briefly: Prolongation of bleeding time in mouse at 30 uM/kg, po administered as single dose by tail excision method relative to control. The series is classed as ADME, organism-based. Conditions: in vivo.
For series [15], the system named is Platelet. Described as §1. It is filed as functional, cell-free.
Series [16] in a line: (§2) Antiplatelet activity in human platelet-rich plasma assessed as inhibition of U46619-induced platelet aggregation treated for 5 mins prior to U46619 challenge for 5 mins by turbidimetric method. The series is classed as functional, cell-free. Conditions: for IC50: Homo sapiens, Platelet, Plasma.
In series [17] the test system is Platelet. The series is described as §2. The series is classed as functional, cell-free.
Series [18] in a line: Antiplatelet activity in human platelet-rich plasma assessed as inhibition of collagen-induced platelet aggregation at 10 uM treated for 5 mins prior to collagen challenge for 5 mins by turbidimetric method. It is filed as functional.
For series [19], the system named is Platelet. Description: Antiplatelet activity in human platelet-rich plasma assessed as inhibition of convulxin-induced platelet aggregation treated for 5 mins prior to convulxin challenge for 5 mins by turbidimetric method. It is filed as functional, cell-free.
In series [20] the test system is Platelet. Briefly: Antiplatelet activity in human platelet-rich plasma assessed as inhibition of CRP-XL-induced platelet aggregation up to 500 uM treated for 5 mins prior to CRP-XL challenge for 5 mins by turbidimetric method. The series is classed as functional, cell-free.
Series [21] has as its system Mus musculus. Description: Antithrombotic activity in mouse assessed as protection against collagen-epinephrine-induced pulmonary thromboembolism at 30 uM/kg, po administered 60 mins prior to thrombotic challenge measured for more than 24 hrs post-drug dose. The series is classed as functional, organism-based.
Series [22] has as its system Mus musculus. Description: Antithrombotic activity in mouse assessed as protection against collagen-epinephrine-induced pulmonary thromboembolism at 30 uM/kg, po administered 60 mins prior to thrombotic challenge measured for up to 12 hrs post-drug dose. The series is classed as functional, organism-based.

The structures appear in SMILES notation. Calls of active or inactive are those of the source. The calls are words filed in the database; no cut-off is given here.

For `CC(=O)Oc1ccccc1C(=O)O` [ASPIRIN], the IC50 in [1] worked out at 5 µM. In addition, the Activity with Mus musculus [2] was found to be 40%. Further, the outcome in the series with Mus musculus [3] was Active. For the same molecule, the “fold change (FC)” value with Mus musculus [4] is 2.2.
`Cc1ccc(CN2C(=O)CC[C@H]2C(=O)N2CCCC(CNC(=O)OC(C)(C)C)C2)cc1` (mixture of isomers): the inhibition at 30 µM in series [5] came out at 77.3%. In addition, the IC50 in [6] is 16 µM. The inhibition entry with Platelet [7], with Platelet [8] and with Platelet [9] was “inactive” each time. The results for the Activity in the series on Mus musculus [10] and in the series with Mus musculus [13] were 60% and 50%, respectively. Also, in the series with Mus musculus [11], the result was Active. In the series with Mus musculus [12], the outcome was inactive. The “fold change (FC)” value in the series with Mus musculus [14] is on record as 1.5.
In the case of `Cc1ccc(CN2C(=O)SC[C@H]2C(=O)N2CCC[C@H](CNC(=O)OC(C)(C)C)C2)cc1`, the figures for the “inhibition (INH)” value in series [6], in series [1] and in series [16] were 83%, 8% and 64%, respectively. Moreover, the values for the half-maximal inhibitory concentration (IC50) in series [6], in series [1] and in series [16] were 6 µM, above 100 µM and 10.2 µM, respectively. Further, the inhibition result in the series on Platelet [15] and with Platelet [17] was “Dose-dependent effect” throughout. The inhibition entry with Platelet [7], in the series with Platelet [8] and with Platelet [9] was “inactive” each time. Further, the Activity in the series on Mus musculus [10] and in the series with Mus musculus [13] was 50% each time.
On to `Cc1ccc(CN2C(=O)CC[C@H]2C(=O)N2CCC[C@@H](CNC(=O)OC(C)(C)C)C2)cc1`, for which the inhibition at 10 µM in [18] is 49%. Besides, the IC50 in series [6] was 6.6 µM. For the same molecule, the inhibition entry with Platelet [7], in the series on Platelet [8], with Platelet [9] and with Platelet [19] was “inactive” in each case. Moreover, the inhibition entry in the series with Platelet [20] is “Active”. The Activity in the series with Mus musculus [10] turned out to be 60%. Further, the result in the series on Mus musculus [21] was Active.
Consider `Cc1ccc(CN2C(=O)SC[C@H]2C(=O)N2CCC[C@@H](CNC(=O)OC(C)(C)C)C2)cc1`, for which the entries for the “inhibition (INH)” value in series [6], in series [1] and in series [16] were 81%, 15% and 75%, respectively. Also, the IC50 in [6] was 6.4 µM; in series [1], above 100 µM; in [16], 6.4 µM. For the same molecule, the inhibition result with Platelet [15] and with Platelet [17] was “Dose-dependent effect” in each case. The inhibition entry in the series on Platelet [7], in the series with Platelet [8] and in the series with Platelet [9] was “inactive” throughout. In addition, the Activity is on record as 40% in the series with Mus musculus [10] and 43% with Mus musculus [13].
For the molecule `Cc1ccc(CN2C(=O)CC[C@H]2C(=O)N2CCC[C@H](CNC(=O)OC(C)(C)C)C2)cc1`, the inhibition at 10 µM in series [18] was found to be 30%. For the same molecule, in series [6], the IC50 came out at 37 µM. In addition, the inhibition result in the series on Platelet [7], in the series on Platelet [8] and with Platelet [9] was “inactive” throughout. Further, the Activity in the series on Mus musculus [10] came out at 50%. Moreover, in the series with Mus musculus [22], the outcome was Active.
